Data on 4 compounds can be found in PMC4643876, “Picomolar Inhibition of Plasmepsin V, an Essential Malaria Protease, Achieved Exploiting the Prime Region” (PLoS ONE, 2015).

In general, IC50 refers to the concentration that gives 50% inhibition. The term IC20 denotes the concentration needed for an effect of 20%. What is called IC80 is the point of the concentration-response curve where the effect stands at 80%. The Ki is the equilibrium dissociation constant of an inhibitor or competing ligand from its target. Lower therefore signals tighter binding. As usually defined, the logD is lipophilicity at a set pH, counting ionised and neutral species. Low readings indicate a more hydrophilic compound, high ones a more lipophilic compound.

Data set [1] deals with T1, Plasmepsin V (PmV) (Plasmodium falciparum, UniProt Q8I6Z5).
T1 construct: PmV was purified directly from parasites; made in house
T1 sequence (Q8I6Z5 whole entry): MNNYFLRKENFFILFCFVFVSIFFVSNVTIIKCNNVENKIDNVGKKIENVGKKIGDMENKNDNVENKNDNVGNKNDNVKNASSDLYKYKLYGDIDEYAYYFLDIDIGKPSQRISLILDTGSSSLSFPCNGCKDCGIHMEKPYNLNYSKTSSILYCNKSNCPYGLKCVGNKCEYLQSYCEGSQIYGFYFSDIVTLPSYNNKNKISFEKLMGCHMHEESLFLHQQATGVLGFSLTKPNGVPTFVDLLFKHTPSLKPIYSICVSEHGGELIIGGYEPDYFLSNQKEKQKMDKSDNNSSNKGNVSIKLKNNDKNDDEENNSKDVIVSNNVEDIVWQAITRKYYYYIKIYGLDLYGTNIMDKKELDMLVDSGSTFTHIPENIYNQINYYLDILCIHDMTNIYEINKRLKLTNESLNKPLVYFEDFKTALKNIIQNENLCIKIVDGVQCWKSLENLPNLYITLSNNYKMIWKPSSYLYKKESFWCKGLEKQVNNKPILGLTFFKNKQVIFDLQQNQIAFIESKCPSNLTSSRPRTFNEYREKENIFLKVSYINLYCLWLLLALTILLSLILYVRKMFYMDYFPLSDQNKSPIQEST
Kind of data set: PmV inhibition, fluorimetric PExEl cleavage assay. The class given is biochemical. As to conditions: for IC50: read-out: IC50. How it is done:
Saponin was added to culture to a final 0.05%; parasites were recovered via centrifugation at 4°C after 5 min of incubation on ice; parasite pellets were then washed twice in cold PBS and either immediately lysed or stored at -80°C until lysis. Parasites were lysed via three pulses of ultra-sonication of 10 sec duration, in PBS containing 0.5% Triton-X100 (TX-100). […] Quick washes of the resin were performed either in batches, or over columns, to remove unbound cellular material (four with ice-cold 0.5% TX-100 in PBS and a final one with cold PBS). Resin-bound PmV was stored in PBS at 4°C and used within 2–3 weeks, larger batches had Glycerol added to them, up to 10%, and were stored at -20°C for up to 5 months. […] Quality and purity of PmV batches were routinely confirmed by protein electrophoresis. Quantification of PmV was performed via densitometry analysis of stained protein SDS-PAGE gels relative to BSA standard curves.
PExEl cleavage activity was monitored by fluorimetric measurement of PExEl cleavage, as previously reported. […] PmV activity was performed at 37°C in 50 mM Tris-Maleate, pH 6.5, 50 mM NaCl, 0.05% TX-100, 2 mM DTT. Assays were routinely conducted in triplicate. Bead-bound enzyme was added to the reaction using ‘end-cut’ micropipette tips in order to facilitate sampling the suspension.
Inhibitory activities were measured in the presence of a substrate concentration of 3 μM by serial dilution of each compound in triplicates. […] Titration curves of the inhibitors were routinely composed of eleven points from 10 μM to 0.1 pM. PmV concentration was kept in the order of low picomolar (≤10 pM). […] Analysis of the half inhibitory activity (IC50) was performed by sigmoidal interpolation of the starting velocities of the hydrolytic reactions for each condition. Starting velocities were calculated on the initial linear range of the product progression curves. […] Data are presented with error bars indicating the standard deviation of three independent activity curves.

Data set [2] has as its system PmV. The following applies: different substrate at […], different buffer; ref [19], [20]; read-out: IC50, published value; cited from earlier work.
In data set [3] the target is T2, PmV-GFP (Plasmodium falciparum, UniProt Q8I6Z5).
T2 construct: parasite cellular lysates of DC6 a clone that constitutively expresses PmV-GFP; expressed in transfected cells; host or cells: Plasmodium falciparum clone DC6 (3D7-derived; PmV-GFP under the native PmV promoter), crude lysate
T2 sequence (Q8I6Z5 whole entry): as above
Nature of the data set: Pull-down / co-precipitation of PmV-inhibitor complexes from DC6 lysates. It counts as binding. On the procedure: Pull-down experiments were performed using parasite cellular lysates of DC6 a clone that constitutively expresses PmV-GFP [15]. […] [i] […] An anti-GFP antibody, 3E6, was added with protein A-agarose as above described and incubated 1 h at 4°C, with gentle agitation. The resin was washed 3 times with cold PBS and then boiled in Laemmli sample buffer for later biotin detection in a dot-blot format. [ii] […] Incubation was carried out for 1 h at 4°C gently maintaining the beads in suspension. Then the resin was washed 3 times with cold PBS and boiled in Laemmli sample buffer for subsequent protein western blot analysis of the pull-down material.

Data set [4] relates to clone DC6. Nature of the data set: Parasite growth inhibition, clone DC6 (PmV-GFP, native promoter).
Procedure: (§1) Growth impairment of parasites in culture was tested as follows. Asynchronous erythrocyte cultures of Plasmodium falciparum strain 3D7 were initiated at a starting parasitemia of 0.2–0.5% in the presence of titration curves of the PmV inhibitors generated in this work. […] Cultures, live or fixed, were analyzed at day 3 and/or 4 after initiation, approximately~ 2 cell cycles of 3D7 strain. Parasitemia was measured by flow cytometry analysis of parasitized cells stained with 0.4 μg/ml Acridine Orange or 1 μM Topro 3 (Life Technology Invitrogen), using BD Fortessa or FACS Calibur instruments.
(§2) DC6 clone expresses PmV-GFP chimera under regulation of the native promoter [15]; G6 clone, the PmV-GFP-DD chimera under regulation of the native promoter (this paper) and #3 clone (episomally expressing PmV-GFP chimera under Hsp86-5', a strong and constitutive promoter) [15]. […] (B) Growth inhibition curves of parasites expressing different levels of PmV: 3D7 (blue dots and line), DC6 (green dots and line), G6 (PmV knock-down) (red dots and line) and #3 (Overexpressing PmV) (purple dots and line) were analysed in parallel. Growth inhibition was measured in triplicates. Dots represent actual data, lines the sigmoidal fitting obtained by non-linear regression analysis. […] Error bars show the standard deviation of the data.
Data set [5] has as its system HRPII-GFP PExEl-dependent secretion. Kind of data set: In vivo inhibition of PExEl export, live microscopy of HRPII-GFP clone. It counts as cell-based, Plasmodium falciparum. The following applies: 20 μM, 27 h, ring to trophozoite stages. How it is done:
Parasites were imaged live or fixed. Fixation in 4% formaldehyde and 0.0075% glutaraldehyde, cell permeabilization, antibody incubation, and mounting were as previously described. Before imaging of HRPII-GFP clone, we treated with Compound 29 highly synchronized parasites at late trophozoite stage with inhibitors for 27 h, and then analyzed the distribution of the exported probe in newly invaded red blood cells. Images were acquired using a fluorescence microscope (BX51 Olympus). Live parasites were counter-stained using the nuclear dye Hoechst 33342 (Life Technologies—Molecular Probes).
Fig 16 Inhibition results in impairment of the PExEl secretion. (A) Microscopy analysis of the distribution of the PExEl-export fluorescent probe. Live parasites expressing HRPII-GFP, used as a probe for PExEl secretion, are imaged in the presence of Hoechst nuclear staining. Bright field (grey scale), nuclei (blue channel), HRPII-GFP (green) and the merged image of the fluorescent channels are presented from left to right. (panel a) untreated culture; (b) mock DMSO-treated culture; (c-f) culture treated with 20 μM 29 solubilized in DMSO (c) mid ring, (d) late-ring, (e) early-trophozoite, (f) late-trophozoite. Bar is 2 μm. […]

Data set [6] relates to Plasmodium falciparum strain 3D7. Nature of the data set: Parasite growth inhibition by flow cytometry, strain 3D7. It counts as cell-based. As to conditions: for LD50 growth inhibition: asynchronous 3D7 cultures, about 4 days, 0.195–200 μM, flow cytometry.
Data set [7] concerns clone G6 (PmV knock-down). Kind of data set: Parasite growth inhibition, clone G6 (PmV-GFP-DD, PmV knock-down). As to conditions: clone G6, absence of Shield-1.
Procedure: as §1
(B) Growth inhibition curves of parasites expressing different levels of PmV: 3D7 (blue dots and line), DC6 (green dots and line), G6 (PmV knock-down) (red dots and line) and #3 (Overexpressing PmV) (purple dots and line) were analysed in parallel. Growth inhibition was measured in triplicates. Dots represent actual data, lines the sigmoidal fitting obtained by non-linear regression analysis. […] Error bars show the standard deviation of the data.
For data set [8] the following is noted: pH 7.4.
Data set [9] relates to clone #3 (Overexpressing PmV). Kind of data set: Parasite growth inhibition, clone #3 (overexpressing PmV-GFP).
Procedure: as §1, §2
Data set [10] relates to HRPII PExEl processing. Nature of the data set: HRPII PExEl processing, western blot. The following applies: 20 μM, about 27 h, 3D7. The class given is cell-based, Plasmodium falciparum. How it is done: Protein analyses to detect PmV, HRPII and BiP via stained protein gels and blots, densitometry, antibody detection or HRP-conjugated Streptavidin, were conducted as previously described.
Fig 16 Inhibition results in impairment of the PExEl secretion. (A) Microscopy analysis of the distribution of the PExEl-export fluorescent probe. Live parasites expressing HRPII-GFP, used as a probe for PExEl secretion, are imaged in the presence of Hoechst nuclear staining. Bright field (grey scale), nuclei (blue channel), HRPII-GFP (green) and the merged image of the fluorescent channels are presented from left to right. (panel a) untreated culture; (b) mock DMSO-treated culture; (c-f) culture treated with 20 μM 29 solubilized in DMSO (c) mid ring, (d) late-ring, (e) early-trophozoite, (f) late-trophozoite. Bar is 2 μm. Impairment of HRPII-GFP PExEl-dependent export is observed in these representative images of live parasites and the GFP signal appears concentrated in regions of immediate proximity to the nuclei. […] (B) HRPII PExEl processing is inhibited by Compound 29. Western blot analysis of HRPII contained in parasites after saponin treatment. Arrows show the pro-form (p) and the mature (m) protein HRPII. 3D7 culture was incubated as described in Materials and Methods with 20 μM Compound 29 for about 27 h.
(Immunoblotting shows a protein as a band on a membrane.)

Where [11] appears, read: 3 μM HRPII-PExEl substrate, averages of not less than three inhibition curves.

Where “and” joins values, the source holds several entries; their conditions need not be identical. Equal values may be shown once. Read-outs that look alike come from different tables or passages of the source.

With `CC(C)C[C@H](NC(=O)[C@@H](NC(=O)[C@H](CCCNC(=N)N)NS(=O)(=O)Cc1ccccc1)C(C)C)[C@@H](O)CC(=O)NCCc1ccccc1` [WEHI916, reference compound], the figures for the IC50 in data set [1] (setting [11]) and in data set [2] were 0.0324 µM and 0.019 to 0.02 µM, respectively.

For `CC(C)C[C@H](NC(=O)[C@H](CCCNC(=N)N)NC(=O)CCCNC(=O)CCCNC(=O)CCCC[C@@H]1SC[C@@H]2NC(=O)N[C@@H]21)C(=O)N[C@@H](CC(C)C)C(O)CN[C@@H](C)C(=O)N[C@@H](CCC(N)=O)C(=O)N[C@@H](C)C(=O)O` (stereo partly shown) [Compound 36], the “interaction with PmV in pull-down / immuno-precipitation” value in [3] (DC6 lysate, 50 μM or streptavidin-resin bound) was “confirmed the interaction between our inhibitor and PmV”.

As for `CC(C)C[C@H](NC(=O)[C@@H](N)CCCCN)C(=O)N[C@@H](CC(C)C)C(O)CN[C@@H](C)C(=O)N[C@@H](CCC(=O)O)C(N)=O` (mixture of isomers) [Compound 29], the concentration for an effect of 20% (IC20) in data set [4] turned out to be 12.8 µM; in data set [6] (strain 3D7, parental line), 14 µM; in [7] it was 7.68 µM; in [9] it was 25.1 µM. The IC50 in [4] is 18.5 µM; in data set [1] (setting [11]), 1.97 µM; in [6] (strain 3D7, parental line) it was 17.9 µM; in data set [7] it was 12.5 µM; in data set [9], 27.5 µM. The IC80 in [4] turned out to be 27.1 µM; in data set [6] (strain 3D7, parental line), 22.7 µM; in data set [7], 20.2 µM; in [9], 30.1 µM. Also, the “effect on HRPII-GFP PExEl-dependent secretion” value in data set [5] was “impairment of HRPII-GFP PExEl-dependent secretion was observed”. The “IC50 increase compared to Compound 13a” value in data set [1] was determined as 8 fold. Further, in data set [1], affinity was put at a Ki of 1.06 µM. The LD50 growth inhibition in data set [6] is ~ 15 μM and 15.2 μM. In [8], the pH-dependent lipophilicity (logD) is -5.99. Besides, the “effect on natural processing of HRPII” value in data set [10] is recorded as “inhibited”.

As to `CC(C)C[C@H](NC(=O)[C@@H](N)CCCNC(=N)N)C(=O)N[C@@H](CC(C)C)C(O)CN[C@@H](C)C(=O)N[C@@H](CCC(=O)O)C(=O)N[C@@H](C)C(N)=O` (mixture of isomers) [Compound 1], the “competition of Compound 36 binding to PmV” value in [3] (50 μM competitor) is “negatively affects the interaction between Compound 36 and PmV”. This compound displayed a Ki in data set [1] of 0.0002 µM. Besides, the IC50 in [1] (setting [11]) was determined as 0.00037 µM; in data set [1] (3 μM substrate), 0.000367 µM; in [1] (inhibitor added after the reaction was initiated) it was 0.000329 µM; in data set [1] (pre-mixing the enzyme with inhibitor) it was 0.000367 µM. In addition, the “greater inhibition efficiency relative to WEHI916” value in data set [1] (side-by-side comparison) is on record as ~ 100 fold. The compound further registered an LD50 growth inhibition in [6] of over 200 µM. This compound also returned a pH-dependent lipophilicity (logD) in data set [8] of -4.28.
